Test results: ChEMBL document CHEMBL4049462, “Synthesis and Biological Evaluation of Novel Neuroprotective Pyridazine Derivatives as Excitatory Amino Acid Transporter 2 (EAAT2) Activators” (2017)

Columns and labels:
Format in all cases: functional
Rattus norvegicus [1] = test: Antihypersensitivity in oxaliplatin-induced Sprague-Dawley rat hyperalgesia model assessed as increase in weight tolerated on posterior paw at 3 mg/kg, sc administered daily for 7 days post oxaliplatin challenge measured on day 7 post last dose by analgesimeter relative to control
Rattus norvegicus [2] = test: Antiallodynic activity in oxaliplatin-induced Sprague-Dawley rat allodynia model assessed as paw withdrawal latency time at 3 mg/kg, sc administered daily up to day 6 measured on day 7 post last dose by cold plate test (reference value: 14.3 +/- 0.3 secs)
Rattus norvegicus [3] = test: Antihypersensitivity in oxaliplatin-induced Sprague-Dawley rat thermal hyperalgesia model assessed as paw withdrawal latency time at 3 mg/kg, sc administered daily up to day 13 measured on day 14 post last dose by plantar test (reference value: 10.6 +/- 0.5 secs)
Rattus norvegicus [4] = test: Antihypersensitivity in oxaliplatin-induced Sprague-Dawley rat thermal hyperalgesia model assessed as paw withdrawal latency time at 3 mg/kg, sc administered daily up to day 6 measured on day 7 post last dose by plantar test (reference value: 9 +/- 1 secs)
Rattus norvegicus [5] = test: Antihypersensitivity in oxaliplatin-induced Sprague-Dawley rat hyperalgesia model assessed as increase in weight tolerated on posterior paw at 3 mg/kg, sc administered daily for 14 days post oxaliplatin challenge measured on day 14 post last dose by analgesimeter relative to control
Rattus norvegicus [6] = test: Antiallodynic activity in oxaliplatin-induced Sprague-Dawley rat allodynia model assessed as paw withdrawal latency time at 3 mg/kg, sc administered daily up to day 13 measured on day 14 post last dose by cold plate test (reference value: 12 +/- 1.2 secs)
Rattus norvegicus [7] = test: Antiallodynic activity in oxaliplatin-induced Sprague-Dawley rat allodynia model assessed as increase in paw withdrawal latency time at 3 mg/kg, sc administered daily up to day 6 measured on day 7 post last dose by Von Frey test relative to control
Rattus norvegicus [8] = test: Antiallodynic activity in oxaliplatin-induced Sprague-Dawley rat allodynia model assessed as increase in paw withdrawal latency time at 3 mg/kg, sc administered daily up to day 13 measured on day 14 post last dose by Von Frey test relative to control
Rattus norvegicus [9] = test: Antiallodynic activity in oxaliplatin-induced Sprague-Dawley rat allodynia model assessed as paw withdrawal latency time at 3.43 mg/kg, sc administered daily up to day 13 measured on day 14 post last dose by cold plate test (reference value: 12 +/- 1.2 secs)
Rattus norvegicus [10] = test: Antihypersensitivity in oxaliplatin-induced Sprague-Dawley rat hyperalgesia model assessed as weight tolerated on posterior paw at 3.43 mg/kg, sc administered daily for 7 days post oxaliplatin challenge measured on day 7 post last dose by analgesimeter (reference value: 46.1 +/- 0.5 g)
Rattus norvegicus [11] = test: Antiallodynic activity in oxaliplatin-induced Sprague-Dawley rat allodynia model assessed as paw withdrawal latency time at 3.43 mg/kg, sc administered daily up to day 6 measured on day 7 post last dose by cold plate test (reference value: 14.3 +/- 0.3 secs)
Rattus norvegicus [12] = test: Antihypersensitivity in oxaliplatin-induced Sprague-Dawley rat hyperalgesia model assessed as increase in weight tolerated on posterior paw at 3.43 mg/kg, sc administered daily up to day 13 measured on day 14 post last dose by analgesimeter relative to control
Rattus norvegicus [13] = test: Antiallodynic activity in oxaliplatin-induced Sprague-Dawley rat allodynia model assessed as paw withdrawal latency time at 3.43 mg/kg, sc administered daily up to day 6 measured on day 7 post last dose by Von Frey test (reference value: 12.4 +/- 1.2 secs)
Rattus norvegicus [14] = test: Antihypersensitivity in oxaliplatin-induced Sprague-Dawley rat thermal hyperalgesia model assessed as paw withdrawal latency time at 3.43 mg/kg, sc administered daily up to day 6 measured on day 7 post last dose by plantar test (reference value: 9 +/- 1 secs)
Rattus norvegicus [15] = test: Antihypersensitivity in oxaliplatin-induced Sprague-Dawley rat thermal hyperalgesia model assessed as paw withdrawal latency time at 3.43 mg/kg, sc administered daily up to day 13 measured on day 14 post last dose by plantar test (reference value: 10.6 +/- 0.5 secs)
Rattus norvegicus [16] = test: Antihypersensitivity in oxaliplatin-induced Sprague-Dawley rat hyperalgesia model assessed as weight tolerated on posterior paw at 3.37 mg/kg, sc administered daily for 7 days post oxaliplatin challenge measured on day 7 post last dose by analgesimeter (reference value: 46.1 +/- 0.5 g)
Rattus norvegicus [17] = test: Antihypersensitivity in oxaliplatin-induced Sprague-Dawley rat hyperalgesia model assessed as increase in weight tolerated on posterior paw at 3.37 mg/kg, sc administered daily up to day 13 measured on day 14 post last dose by analgesimeter relative to control
Rattus norvegicus [18] = test: Antiallodynic activity in oxaliplatin-induced Sprague-Dawley rat allodynia model assessed as increase in paw withdrawal latency time at 3.37 mg/kg, sc administered daily up to day 13 measured on day 14 post last dose by Von Frey test relative to control
Rattus norvegicus [19] = test: Antiallodynic activity in oxaliplatin-induced Sprague-Dawley rat allodynia model assessed as paw withdrawal latency time at 3.37 mg/kg, sc administered daily up to day 6 measured on day 7 post last dose by cold plate test (reference value: 14.3 +/- 0.3 secs)
Rattus norvegicus [20] = test: Antiallodynic activity in oxaliplatin-induced Sprague-Dawley rat allodynia model assessed as increase in paw withdrawal latency time at 3.43 mg/kg, sc administered daily up to day 13 measured on day 14 post last dose by Von Frey test relative to control
Rattus norvegicus [21] = test: Antiallodynic activity in oxaliplatin-induced Sprague-Dawley rat allodynia model assessed as paw withdrawal latency time at 3.37 mg/kg, sc administered daily up to day 13 measured on day 14 post last dose by cold plate test (reference value: 12 +/- 1.2 secs)
Rattus norvegicus [22] = test: Antiallodynic activity in oxaliplatin-induced Sprague-Dawley rat allodynia model assessed as paw withdrawal latency time at 3.37 mg/kg, sc administered daily up to day 6 measured on day 7 post last dose by Von Frey test (reference value: 12.4 +/- 1.2 secs)
Rattus norvegicus [23] = test: Antihypersensitivity in oxaliplatin-induced Sprague-Dawley rat thermal hyperalgesia model assessed as paw withdrawal latency time at 3.37 mg/kg, sc administered daily up to day 13 measured on day 14 post last dose by plantar test (reference value: 10.6 +/- 0.5 secs)
Rattus norvegicus [24] = test: Antihypersensitivity in oxaliplatin-induced Sprague-Dawley rat thermal hyperalgesia model assessed as paw withdrawal latency time at 3.37 mg/kg, sc administered daily up to day 6 measured on day 7 post last dose by plantar test (reference value: 9 +/- 1 secs)
Rattus norvegicus [25] = test: Antihypersensitivity in oxaliplatin-induced Sprague-Dawley rat hyperalgesia model assessed as weight tolerated on posterior paw at 3.28 mg/kg, sc administered daily up to day 13 measured on day 14 post last dose by analgesimeter (reference value: 44.7 +/- 1.2 g)
Rattus norvegicus [26] = test: Antiallodynic activity in oxaliplatin-induced Sprague-Dawley rat allodynia model assessed as paw withdrawal latency time at 3.28 mg/kg, sc administered daily up to day 13 measured on day 14 post last dose by cold plate test (reference value: 12 +/- 1.2 secs)
Rattus norvegicus [27] = test: Antiallodynic activity in oxaliplatin-induced Sprague-Dawley rat allodynia model assessed as paw withdrawal latency time at 3.28 mg/kg, sc administered daily up to day 13 measured on day 14 post last dose by Von Frey test (reference value: 11.6 +/- 0.5 secs)
Rattus norvegicus [28] = test: Antiallodynic activity in oxaliplatin-induced Sprague-Dawley rat allodynia model assessed as paw withdrawal latency time at 3.28 mg/kg, sc administered daily up to day 6 measured on day 7 post last dose by cold plate test (reference value: 14.3 +/- 0.3 secs)
Rattus norvegicus [29] = test: Antihypersensitivity in oxaliplatin-induced Sprague-Dawley rat thermal hyperalgesia model assessed as paw withdrawal latency time at 3.28 mg/kg, sc administered daily up to day 6 measured on day 7 post last dose by plantar test (reference value: 9 +/- 1 secs)
Rattus norvegicus [30] = test: Antihypersensitivity in oxaliplatin-induced Sprague-Dawley rat hyperalgesia model assessed as weight tolerated on posterior paw at 3.28 mg/kg, sc administered daily for 7 days post oxaliplatin challenge measured on day 7 post last dose by analgesimeter (reference value: 46.1 +/- 0.5 g)
Rattus norvegicus [31] = test: Antiallodynic activity in oxaliplatin-induced Sprague-Dawley rat allodynia model assessed as increase in paw withdrawal latency time at 3.28 mg/kg, sc administered daily up to day 6 measured on day 7 post last dose by Von Frey test relative to control
Rattus norvegicus [32] = test: Antihypersensitivity in oxaliplatin-induced Sprague-Dawley rat thermal hyperalgesia model assessed as paw withdrawal latency time at 3.28 mg/kg, sc administered daily up to day 13 measured on day 14 post last dose by plantar test (reference value: 10.6 +/- 0.5 secs)
Rattus norvegicus [33] = test: Antiallodynic activity in oxaliplatin-induced Sprague-Dawley rat allodynia model assessed as paw withdrawal latency time at 3.42 mg/kg, sc administered daily up to day 13 measured on day 14 post last dose by cold plate test (reference value: 12 +/- 1.2 secs)
Rattus norvegicus [34] = test: Antihypersensitivity in oxaliplatin-induced Sprague-Dawley rat thermal hyperalgesia model assessed as paw withdrawal latency time at 3.42 mg/kg, sc administered daily up to day 6 measured on day 7 post last dose by plantar test (reference value: 9 +/- 1 secs)
Rattus norvegicus [35] = test: Antiallodynic activity in oxaliplatin-induced Sprague-Dawley rat allodynia model assessed as increase in paw withdrawal latency time at 3.42 mg/kg, sc administered daily up to day 13 measured on day 14 post last dose by Von Frey test relative to control
Rattus norvegicus [36] = test: Antiallodynic activity in oxaliplatin-induced Sprague-Dawley rat allodynia model assessed as paw withdrawal latency time at 3.42 mg/kg, sc administered daily up to day 6 measured on day 7 post last dose by cold plate test (reference value: 14.3 +/- 0.3 secs)
Rattus norvegicus [37] = test: Antihypersensitivity in oxaliplatin-induced Sprague-Dawley rat hyperalgesia model assessed as increase in weight tolerated on posterior paw at 3.42 mg/kg, sc administered daily up to day 13 measured on day 14 post last dose by analgesimeter relative to control
Rattus norvegicus [38] = test: Antihypersensitivity in oxaliplatin-induced Sprague-Dawley rat thermal hyperalgesia model assessed as paw withdrawal latency time at 3.42 mg/kg, sc administered daily up to day 13 measured on day 14 post last dose by plantar test (reference value: 10.6 +/- 0.5 secs)
Rattus norvegicus [39] = test: Antihypersensitivity in oxaliplatin-induced Sprague-Dawley rat hyperalgesia model assessed as weight tolerated on posterior paw at 3.42 mg/kg, sc administered daily for 7 days post oxaliplatin challenge measured on day 7 post last dose by analgesimeter (reference value: 46.1 +/- 0.5 g)
Rattus norvegicus [40] = test: Antiallodynic activity in oxaliplatin-induced Sprague-Dawley rat allodynia model assessed as paw withdrawal latency time at 3.42 mg/kg, sc administered daily up to day 6 measured on day 7 post last dose by Von Frey test (reference value: 12.4 +/- 1.2 secs)

Cc1ccccc1CSc1ccc(-c2ccccn2)nn1
Activity (Rattus norvegicus [1]): 67.1%
Time (Rattus norvegicus [2]): 17 s
Time (Rattus norvegicus [3]): 18.3 s
Time (Rattus norvegicus [4]): 14.1 s
Activity (Rattus norvegicus [5]): 76.4%
Time (Rattus norvegicus [6]): 22.5 s
Activity (Rattus norvegicus [7]): 51.3%
Activity (Rattus norvegicus [8]): 75.9%

c1ccc(-c2ccc(SCc3nc4ccccc4s3)nn2)nc1
Time (Rattus norvegicus [9]): 16.3 s
Activity (Rattus norvegicus [10]): 54.7 g
Time (Rattus norvegicus [11]): 15.8 s
Activity (Rattus norvegicus [12]): 72.5%
Time (Rattus norvegicus [13]): 16.4 s
Time (Rattus norvegicus [14]): 14.3 s
Time (Rattus norvegicus [15]): 15.8 s

c1ccc(-c2ccc(SCc3ccc4ccccc4n3)nn2)nc1
Activity (Rattus norvegicus [16]): 48.4 g
Activity (Rattus norvegicus [17]): 31.7%
Activity (Rattus norvegicus [18]): 33%
Time (Rattus norvegicus [19]): 14.5 s
Activity (Rattus norvegicus [20]): 67.8%
Time (Rattus norvegicus [21]): 15.6 s
Time (Rattus norvegicus [22]): 13.5 s
Time (Rattus norvegicus [23]): 13.7 s
Time (Rattus norvegicus [24]): 11.6 s

c1ccc(-c2ccc(SCc3ccc4ccccc4c3)nn2)nc1
Activity (Rattus norvegicus [16]): 51.9 g
Activity (Rattus norvegicus [17]): 40.1%
Activity (Rattus norvegicus [18]): 53%
Time (Rattus norvegicus [19]): 16 s
Time (Rattus norvegicus [3]): 15.5 s
Time (Rattus norvegicus [21]): 16.5 s
Time (Rattus norvegicus [22]): 17.6 s
Time (Rattus norvegicus [24]): 14.2 s

c1ccc(-c2ccc(SCc3cccc4nonc34)nn2)nc1
Activity (Rattus norvegicus [25]): 62.8 g
Time (Rattus norvegicus [26]): 22 s
Time (Rattus norvegicus [27]): 23.8 s
Time (Rattus norvegicus [28]): 19.4 s
Time (Rattus norvegicus [29]): 15.2 s
Activity (Rattus norvegicus [30]): 58.6 g
Activity (Rattus norvegicus [31]): 62.8%
Time (Rattus norvegicus [32]): 18.7 s

c1ccc(-c2ccc(SCc3cc4ccccc4s3)nn2)nc1
Time (Rattus norvegicus [33]): 17.5 s
Time (Rattus norvegicus [34]): 12.8 s
Activity (Rattus norvegicus [35]): 64.3%
Time (Rattus norvegicus [36]): 17.8 s
Activity (Rattus norvegicus [37]): 86.2%
Time (Rattus norvegicus [38]): 15.1 s
Activity (Rattus norvegicus [39]): 55.3 g

c1ccc(-c2ccc(SCc3cccc4cccnc34)nn2)nc1
Activity (Rattus norvegicus [16]): 51.3 g
Activity (Rattus norvegicus [17]): 44.3%
Activity (Rattus norvegicus [18]): 68.7%
Time (Rattus norvegicus [19]): 18 s
Time (Rattus norvegicus [3]): 13.8 s
Time (Rattus norvegicus [21]): 18 s
Time (Rattus norvegicus [22]): 17.6 s
Time (Rattus norvegicus [40]): 18.8 s
Time (Rattus norvegicus [24]): 12.5 s
